From patent EP0958835A1, “PREVENTIVE/REMEDY FOR FREQUENT URINATION AND URINARY INCONTINENCE” (Kissei Pharmaceutical Co., Ltd., priority 1996, dated 1998) come the findings set out here.

The test relates to human bladder smooth muscle. Kind of test: Relaxing effect on resting tension of isolated human bladder smooth muscle strips. In kind it is cell-based. Particulars: drug added cumulatively about every 5 minutes, 0 % = 10^-5 M forskolin, Figure 1. How it is done:
Measurement of the contractile force of human bladder smooth muscle strips (1) Smooth muscle preparations Human bladders were obtained from patients undergoing cystectomy and were carefully dissected free from the surrounding fat and mucosa. Preparations were prepared by cutting the bladder smooth muscle longitudinally into about 1.5 cm in length and about 3 mm in width and used. […] Conditions for measurement; The bathing solution was maintained at 37 °C and gassed with a mixture of 95 % O2 and 5 % CO2. Drug Treatment; The drug was cumulatively added about every 5 minutes. Evaluation of the drug effects; The drug-induced relaxation was evaluated. The tension before the drug treatment is indicated as 100 %, and the tension after treatment with 10^-5 M forskolin which produces maximal bladder relaxation is indicated as 0 %. According to the method described above, the bladder relaxing effects of the following drugs were measured using human bladder smooth muscle.

For the compound `CC(C)(C)NCC(O)COc1cccc2[nH]c(=O)[nH]c12.Cl` (racemic) [CGP-12,177A hydrochloride, (±)-4-[3-[(1,1-dimethylethyl)-amino]-2-hydroxypropoxy]-1,3-dihydro-2H-benzimidazol-2-on hydrochloride], the “relaxing effects on bladder smooth muscle” value is “apparent relaxing effects”.

For `CC(C)NCC(O)c1ccc(O)c(O)c1` (centres unmarked) [isoproterenol], the “relaxing effects on bladder smooth muscle” value is listed as “apparent relaxing effects”.
